Measured values reported in patent US20240327359A1, “3-ISOXAZOLIDINONE COMPOUND, PREPARATION METHOD, HERBICIDAL COMPOSITION AND APPLICATION THEREOF” (QINGDAO KINGAGROOT CHEMICAL COMPOUND CO., LTD., priority 2021, published 2024).

How the values were obtained:
Format in all cases: in vivo
Cirsium setosum = test: Activity test of the compositions, post-emergence treatment by foliage spray; conditions: foliage (F)
Method: The desired active ingredient B was purchased from a reagent company or synthesized by a known method. The technical materials were all dissolved in acetone and diluted with an aqueous solution containing 0.10% emulsifier Tween-80 which were to be used immediately after dilution.
Weeds were cultivated by a pot culture method. […] Weed seeds with plump and uniform grains were selected, soaked in lukewarm water at 25° C. for 6 hours, and germinated in a 28° C. biochemical incubator (in darkness). The weed seeds that had just germinated were evenly placed on the surface of the soil and then covered with 0.5-1 cm soil according to the sizes of seeds.
The culture was carried out in a controllable sunlight greenhouse at 20 to 30° C., in natural light, and with relative humidity of 57% to 72%.
Each treatment was repeated 4 times. Four pots with 20 weed seeds per pot were treated each time.
The agents were used for only once in total in the experiment. In the stage of 1.5-2 leaves, the weeds were thinned out to maintain 10 weeds per pot. Ten weeds were kept in each treatment, then continued to be cultured until Echinochloa crus-galli var. zelayensis reached the stage of 2-3 leaves, Cirsium setosum reached the stage of 5-6 leaves, Galium aparine reached the stage of 3-4 whorl leaves, Amaranthus retroflexus reached the stage of 3-5 leaves, Echinochloa crusgalli, Lolium multiflorum and Digitaria sanguinalis reached the stage of 3 leaves with one leaf not fully expanding for further treatment.
The well-cultured test materials were evenly placed on a platform with an area of 0.5 m^2, and solution of agents was sprayed on the stems and leaves thereof by the 3WP-2000-type walking spray tower at a dosage of 450 kg/ha and at a spray pressure of 0.3 MPa. After all the solution was sprayed, the valve was closed. After 30 seconds, the door of the spray tower was opened, and the nutritional bowl was taken out. Then the valve was opened, and the spray tube was cleaned by spraying 50 ml of water. After the treatment, the weeds were routinely cultured in a greenhouse.
A method for investigating absolute numbers was employed. Whole seedlings of survival weeds were cut off with a blade along the soil surface, and the fresh weight of the weeds was weighed with an analytical balance. For dead weeds, the fresh weight thereof was zero.
The investigation was performed 21 days after the treatment for only once in total.

Echinochloa crusgalli = test: Weeding effect in pre-emergence stage; conditions: 2 weeks
Description: (§1) The activity level criteria for plant damage (i.e., growth control rate) are as follows:
(§2) The above growth control rates are fresh weight control rates.
(§3) Monocotyledonous and dicotyledonous weed seeds (Descurainia sophia, Capsella bursa-pastoris, Abutilon theophrasti, Galium aparine, Stellaria media, Lithospermum arvense, Rorippa indica, Alopecurus aequalis, Alopecurus japonicus, Eleusine indica, Beckmannia syzigachne, Sclerochloa dura, Phleum paniculatum, Veronica didyma, Bromus japonicus, Aegilops tauschii, Phalaris arundinacea, Amaranthus retroflexus, Chenopodiaceae, Commelina communis, Sonchus arvensis, Convolvulus arvensis, Cirsium setosum, Solanumnigrum, Acalypha australis, Digitaria sanguinalis, Echinochloa crusgalli, Setaria viridis, Setaria glauca, Leptochloa chinensis, Monochoria vaginalis, Sagittaria trifolia, Scirpus juncoides, Cyperus rotundus, Cyperus iria, Cyperus difformis, Fimbristylis, Portulaca oleracea, Xanthium sibiricum, Pharbitis nil, Conyza Canadensis, etc.) and major crop seeds (wheat, corn, rice, soybean, cotton, oilseed rape, millet, sorghum, potato, sesame, ricinus, etc.) were placed in plastic pots filled with soil, then covered with 0.5-2 cm of soil, allowed to grow in a good greenhouse environment. The test plants were treated on the day of sowing. The tested compounds of the present invention were respectively dissolved in acetone, then added with Tween 80, diluted with a certain amount of water to obtain a solution of a certain concentration, and sprayed by a spray tower onto the plants. After the application, the plants were cultured for 2 weeks in the greenhouse, and then the experimental results of the weeding were recorded. The doses of the used compounds were 3, 6, 12, 24, 48 g ai./mu (1 mu=1/15 ha), and the averages were obtained from three replicates.

Leptochloa chinensis [1] = test: Weeding effect in pre-emergence stage; conditions: 2 weeks
Description: as §1, §2, §3

Veronica didyma = test: Weeding effect in pre-emergence stage; conditions: 2 weeks
Description: as §1, §2, §3

Descurainia sophia = test: Weeding effect in pre-emergence stage; conditions: 2 weeks
Description: as §1, §2, §3

Lolium perenne = test: Weeding effect in pre-emergence stage; conditions: 2 weeks
Description: as §1, §2, §3

Digitaria sanguinalis = test: Weeding effect in post-emergence stage; conditions: 720 g a.i./ha, 3 weeks after application
Description: as §1, §2
(§4) Monocotyledonous and dicotyledonous weed seeds (Descurainia sophia, Capsella bursa-pastoris, Abutilon theophrasti, Galium aparine, Stellaria media, Lithospermum arvense, Rorippa indica, Alopecurus aequalis, Alopecurus japonicus, Eleusine indica, Beckmannia syzigachne, Sclerochloa dura, Phleum paniculatum, Veronica didyma, Bromus japonicus, Aegilops tauschii, Phalaris arundinacea, Amaranthus retroflexus, Chenopodiaceae, Commelina communis, Sonchus arvensis, Convolvulus arvensis, Cirsium setosum, Solanumnigrum, Acalypha australis, Digitaria sanguinalis, Echinochloa crusgalli, Setaria viridis, Setaria glauca, Leptochloa chinensis, Monochoria vaginalis, Sagittaria trifolia, Scirpus juncoides, Cyperus rotundus, Cyperus iria, Cyperus difformis, Fimbristylis, Portulaca oleracea, Xanthium sibiricum, Pharbitis nil, Conyza Canadensis, etc.) and major crop seeds (wheat, corn, rice, soybean, cotton, oilseed rape, millet, sorghum, potato, sesame, ricinus, etc.) were placed in plastic pots filled with soil, then covered with 0.5-2 cm of soil, allowed to grow in a good greenhouse environment. Two weeks after sowing, the test plants were treated in the 2-3 leaf stage. The tested compounds of the present invention were respectively dissolved in acetone, then added with Tween 80 and 1.5 liter/ha of emulsifiable concentrate of methyl oleate as synergist, diluted with a certain amount of water to obtain a solution of a certain concentration, and sprayed by a spray tower onto the plants. After the application, the plants were cultured for 3 weeks in the greenhouse, and then the experimental results of the weeding were recorded. The doses of the used compounds were 45, 90, 180, 360, 720 g a.i./ha, and the averages were obtained from three replicates.

Leptochloa chinensis [2] = test: Weeding effect in post-emergence stage; conditions: 720 g a.i./ha, 3 weeks after application
Description: as §1, §2, §4

Abutilon theophrasti = test: Weeding effect in post-emergence stage; conditions: 720 g a.i./ha, 3 weeks after application
Description: as §1, §2, §4

Alopecurus japonicus = test: Weeding effect in post-emergence stage; conditions: 720 g a.i./ha, 3 weeks after application
Description: as §1, §2, §4

weeds = test: Activity test of the compositions, soil sealing treatment; conditions: Echinochloa crus-galli, 504 h, Echinochloa crusgalli, soil treatment (S), 21 days, read-out: Control effect (%) of B applied alone (B)
Procedure, shortened: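 Pre-emergence soil spray at 450 kg/ha, 0.3 MPa, applied 72 h after sowing pre-germinated seeds, 20 seeds per pot, 4 pots, 4 repeats; actives in acetone diluted with 0.10% Tween-80. Greenhouse, 20 to 30° C; surviving weed fresh weight measured 21 days after treatment.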

SMILES: CC(C)N1C(=O)c2ccccc2NS1(=O)=O [bentazon]
- Control effect (%) of B applied alone (B) (Cirsium setosum; B 8 g a.i./mu): 12.4%
- Control effect (%) of B applied alone (B) (Cirsium setosum; B 16 g a.i./mu): 25.8%

SMILES: CC1(C)CON(Cc2ccccc2Cl)C1=O [Control compound B, clomazone]
- weeding effect in pre-emergence stage, activity level (growth control rate) (Echinochloa crusgalli; 3 g a.i./mu): 8 (Level 8: growth control rate is greater than or equal to 80% and less than 100%)
- weeding effect in pre-emergence stage, activity level (growth control rate) (Echinochloa crusgalli; 6 g a.i./mu): 9
- weeding effect in pre-emergence stage, activity level (growth control rate) (Echinochloa crusgalli; 12 g a.i./mu): 9
- weeding effect in pre-emergence stage, activity level (growth control rate) (Echinochloa crusgalli; 24 g a.i./mu): 9
- weeding effect in pre-emergence stage, activity level (growth control rate) (Leptochloa chinensis [1]; 3 g a.i./mu): 0
- weeding effect in pre-emergence stage, activity level (growth control rate) (Leptochloa chinensis [1]; 6 g a.i./mu): 4 (Level 4: growth control rate is greater than or equal to 40% and less than 50%)
- weeding effect in pre-emergence stage, activity level (growth control rate) (Leptochloa chinensis [1]; 12 g a.i./mu): 9
- weeding effect in pre-emergence stage, activity level (growth control rate) (Leptochloa chinensis [1]; 24 g a.i./mu): 9
- weeding effect in pre-emergence stage, activity level (growth control rate) (Veronica didyma; 6 g a.i./mu): 8 (Level 8: growth control rate is greater than or equal to 80% and less than 100%)
- weeding effect in pre-emergence stage, activity level (growth control rate) (Veronica didyma; 12 g a.i./mu): 9
- weeding effect in pre-emergence stage, activity level (growth control rate) (Veronica didyma; 24 g a.i./mu): 9
- weeding effect in pre-emergence stage, activity level (growth control rate) (Descurainia sophia; 3 g a.i./mu): 2 (Level 2: growth control rate is greater than or equal to 15% and less than 30%)
- weeding effect in pre-emergence stage, activity level (growth control rate) (Descurainia sophia; 6 g a.i./mu): 3 (Level 3: growth control rate is greater than or equal to 30% and less than 40%)
- weeding effect in pre-emergence stage, activity level (growth control rate) (Descurainia sophia; 12 g a.i./mu): 7 (Level 7: growth control rate is greater than or equal to 70% and less than 80%)
- weeding effect in pre-emergence stage, activity level (growth control rate) (Descurainia sophia; 24 g a.i./mu): 7 (Level 7: growth control rate is greater than or equal to 70% and less than 80%)
- weeding effect in pre-emergence stage, activity level (growth control rate) (Lolium perenne; 6 g a.i./mu): 1 (Level 1: growth control rate is greater than 0% and less than 15%)
- weeding effect in pre-emergence stage, activity level (growth control rate) (Lolium perenne; 24 g a.i./mu): 9
- weeding effect in post-emergence stage, activity level (growth control rate) (Digitaria sanguinalis): 3 (Level 3: growth control rate is greater than or equal to 40% and less than 60%)
- weeding effect in post-emergence stage, activity level (growth control rate) (Leptochloa chinensis [2]): 4 (Level 4: growth control rate is greater than or equal to 60% and less than 85%)
- weeding effect in post-emergence stage, activity level (growth control rate) (Abutilon theophrasti): 3 (Level 3: growth control rate is greater than or equal to 40% and less than 60%)
- weeding effect in post-emergence stage, activity level (growth control rate) (Alopecurus japonicus): 4 (Level 4: growth control rate is greater than or equal to 60% and less than 85%)
- pest or weed control at 30 g/ha (weeds; B at 2 g a.i./mu): 33.2%
- pest or weed control at 60 g/ha (weeds; B at 4 g a.i./mu): 46.8%
